Data as given in ChEMBL document CHEMBL1201862, “PubChem BioAssay data set” (2004).
Active and inactive are the calls of the source.

Tests used:
[1] = target: FAD-linked sulfhydryl oxidase ALR (Homo sapiens, UniProt P55789); test: inhibitors of human ALR sulfhydryl oxidase, dose response, biochemical, H2O2 detection, luminescence, cherry-pick (AID 493248)
P388 = test: cells; type: functional; settings: Mus musculus
SN12K1 = test: cells; type: functional; settings: Homo sapiens
Paired box protein Pax-8 = Paired box protein Pax-8 (Homo sapiens, UniProt Q06710); test: inhibitors of PAX8-driven TPO luciferase reporter, dose response, RMG-I cells, cherry-pick (AID 687027); type: functional, cell-based;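 also: luciferase reporter driven by Pax8 target thyroperoxidase promoter measured by SteadyGlo luminescence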
Sequence of Paired box protein Pax-8 (Q06710 whole entry): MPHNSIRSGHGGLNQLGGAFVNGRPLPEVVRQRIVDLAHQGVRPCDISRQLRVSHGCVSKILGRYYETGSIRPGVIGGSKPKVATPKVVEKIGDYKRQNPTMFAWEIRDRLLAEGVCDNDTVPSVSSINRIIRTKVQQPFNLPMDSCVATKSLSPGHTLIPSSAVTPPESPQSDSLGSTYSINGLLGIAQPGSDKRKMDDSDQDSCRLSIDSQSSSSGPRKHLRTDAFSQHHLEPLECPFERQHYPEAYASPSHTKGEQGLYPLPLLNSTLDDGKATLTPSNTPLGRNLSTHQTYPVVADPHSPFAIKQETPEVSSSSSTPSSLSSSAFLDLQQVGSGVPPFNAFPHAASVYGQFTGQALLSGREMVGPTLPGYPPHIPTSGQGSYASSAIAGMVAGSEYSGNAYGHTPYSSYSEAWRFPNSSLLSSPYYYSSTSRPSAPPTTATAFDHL

[2] = Shn3 3'UTR reporter inhibitors, dose response, cell-based, Clone20 osteoblasts, firefly luciferase, cherry-picked (AID 624132); type: functional;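 also: firefly luciferase luminescence from reporter carrying the Shn3 3'UTR in osteoblasts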
[3] = control 3'UTR Renilla luciferase suppression, dose response, counter-screen for Shn3 inhibitor project, cell-based, Clone20-Shn3RL, cherry-picked (AID 624133); type: functional
INS1 = test: beta cell apoptosis inhibitors, cytokine rescue, dose response, luminescence, retest (AID 449756); type: functional, cell-based; settings: Rattus norvegicus;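 also: cell death triggered by IL-1 beta plus TNF-alpha plus IFN-gamma mixture; protective hits raise ATP signal compared with cytokine alone wells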
Large T antigen = Large T antigen (Simian virus 40, UniProt P03070); type: functional, Betapolyomavirus macacae;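 also: Confirmatory-stage PubChem screen for compounds that inhibit SV40 T antigen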
Sequence of Large T antigen (P03070 whole entry): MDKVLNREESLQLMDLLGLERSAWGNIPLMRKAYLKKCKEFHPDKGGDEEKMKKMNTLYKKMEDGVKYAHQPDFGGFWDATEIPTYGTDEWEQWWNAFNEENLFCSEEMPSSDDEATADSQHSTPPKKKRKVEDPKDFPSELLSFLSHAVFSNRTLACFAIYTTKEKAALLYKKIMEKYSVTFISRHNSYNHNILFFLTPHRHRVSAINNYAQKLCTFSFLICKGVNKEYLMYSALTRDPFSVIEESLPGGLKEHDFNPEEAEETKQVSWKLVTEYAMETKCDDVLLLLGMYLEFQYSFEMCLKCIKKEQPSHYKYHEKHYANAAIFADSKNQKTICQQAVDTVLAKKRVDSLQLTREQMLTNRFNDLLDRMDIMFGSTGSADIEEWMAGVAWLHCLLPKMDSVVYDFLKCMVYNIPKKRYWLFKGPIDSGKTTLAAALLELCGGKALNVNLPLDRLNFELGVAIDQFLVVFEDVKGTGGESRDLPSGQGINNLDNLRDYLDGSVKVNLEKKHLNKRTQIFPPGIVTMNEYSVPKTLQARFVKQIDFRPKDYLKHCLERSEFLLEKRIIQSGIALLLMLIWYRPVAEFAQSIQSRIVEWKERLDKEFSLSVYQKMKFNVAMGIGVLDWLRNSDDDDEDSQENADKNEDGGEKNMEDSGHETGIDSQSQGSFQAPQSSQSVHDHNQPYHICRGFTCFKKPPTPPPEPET

[4] = target: T1, Heat shock factor protein 1 (Mus musculus, UniProt P38532); test: HSF1 potentiators in luciferase reporter cells, confirmation, cell-based, NIH3T3, luminescence, dose retest (AID 435004); type: functional;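 also: stress induced by proteasome inhibitor MG132 added 30 min after compound; luciferase reporter driven by HSF1 response element in NIH3T3 cells; actives raise luminescence as potentiators of the MG132 stress response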
T1 sequence (P38532 whole entry): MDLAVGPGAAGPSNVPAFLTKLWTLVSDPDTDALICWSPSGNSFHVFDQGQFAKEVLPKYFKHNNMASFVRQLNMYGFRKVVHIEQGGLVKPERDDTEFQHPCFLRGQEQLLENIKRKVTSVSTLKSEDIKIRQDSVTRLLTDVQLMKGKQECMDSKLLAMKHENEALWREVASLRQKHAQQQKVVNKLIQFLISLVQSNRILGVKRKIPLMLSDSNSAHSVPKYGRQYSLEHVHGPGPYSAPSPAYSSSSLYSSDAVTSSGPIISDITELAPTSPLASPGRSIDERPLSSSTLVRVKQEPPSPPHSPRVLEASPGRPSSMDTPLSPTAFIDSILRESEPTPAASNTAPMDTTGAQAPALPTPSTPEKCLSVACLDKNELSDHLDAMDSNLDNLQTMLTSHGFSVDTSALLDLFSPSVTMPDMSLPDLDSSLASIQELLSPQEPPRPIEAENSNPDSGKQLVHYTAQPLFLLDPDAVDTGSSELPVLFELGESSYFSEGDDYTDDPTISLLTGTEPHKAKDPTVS

[5] = ZM109 Env clade C HIV-1 fusion inhibitors, dose response, HeLa effector, CEM target cells, luciferase, cherry-pick (AID 652058); type: functional, cell-based
[6] = inhibitors of clade B AD8 Env fusion, dose response, cell-based, cherry-pick (AID 652062); type: functional;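 also: luciferase signal from cell-cell fusion driven by HIV-1 clade B AD8 Env; potency is for inhibitors of fusion seen as a drop in luminescence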
[7] = microbe, parasite or virus in culture; type: functional; settings: Mycobacterium tuberculosis
Protein RecA = target: T2, Protein RecA (Mycobacterium tuberculosis, UniProt P9WHJ3); test: Fluorescence Cell-Free Homogeneous Dose Retest to Identify Inhibitors of RecA-Intein Splicing Activity. [Related pubchem assays (depositor defined):AID2097, AID2223, AID489010, AID492950]; type: functional
T2 sequence (P9WHJ3 whole entry): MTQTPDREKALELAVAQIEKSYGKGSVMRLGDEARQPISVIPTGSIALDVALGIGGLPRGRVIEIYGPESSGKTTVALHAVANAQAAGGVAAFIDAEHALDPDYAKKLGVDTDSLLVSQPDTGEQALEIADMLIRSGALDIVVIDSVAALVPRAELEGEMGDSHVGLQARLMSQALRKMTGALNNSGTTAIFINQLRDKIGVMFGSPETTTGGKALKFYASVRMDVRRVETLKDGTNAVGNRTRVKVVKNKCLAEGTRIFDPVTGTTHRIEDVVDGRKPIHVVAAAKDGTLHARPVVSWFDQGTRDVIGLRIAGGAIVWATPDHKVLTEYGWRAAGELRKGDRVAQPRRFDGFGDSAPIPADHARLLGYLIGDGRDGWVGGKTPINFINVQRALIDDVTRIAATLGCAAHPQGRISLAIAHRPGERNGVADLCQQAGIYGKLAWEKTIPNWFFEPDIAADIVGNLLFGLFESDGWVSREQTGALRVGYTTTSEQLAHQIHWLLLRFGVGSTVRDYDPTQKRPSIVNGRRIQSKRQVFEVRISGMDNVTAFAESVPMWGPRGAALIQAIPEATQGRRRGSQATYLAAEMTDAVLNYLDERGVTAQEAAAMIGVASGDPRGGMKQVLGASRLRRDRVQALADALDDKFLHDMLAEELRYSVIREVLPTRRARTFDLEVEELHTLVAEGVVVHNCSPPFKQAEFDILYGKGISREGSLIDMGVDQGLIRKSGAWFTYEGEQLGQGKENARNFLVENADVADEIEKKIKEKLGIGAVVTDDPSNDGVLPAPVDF

[8] = target: T3, Replicative DNA helicase DnaB (Mycobacterium tuberculosis, UniProt P9WMR3); test: DnaB intein splicing inhibitors, dose response, biochemical, cell-free fluorescence (AID 449749); type: functional
T3 sequence (P9WMR3 whole entry): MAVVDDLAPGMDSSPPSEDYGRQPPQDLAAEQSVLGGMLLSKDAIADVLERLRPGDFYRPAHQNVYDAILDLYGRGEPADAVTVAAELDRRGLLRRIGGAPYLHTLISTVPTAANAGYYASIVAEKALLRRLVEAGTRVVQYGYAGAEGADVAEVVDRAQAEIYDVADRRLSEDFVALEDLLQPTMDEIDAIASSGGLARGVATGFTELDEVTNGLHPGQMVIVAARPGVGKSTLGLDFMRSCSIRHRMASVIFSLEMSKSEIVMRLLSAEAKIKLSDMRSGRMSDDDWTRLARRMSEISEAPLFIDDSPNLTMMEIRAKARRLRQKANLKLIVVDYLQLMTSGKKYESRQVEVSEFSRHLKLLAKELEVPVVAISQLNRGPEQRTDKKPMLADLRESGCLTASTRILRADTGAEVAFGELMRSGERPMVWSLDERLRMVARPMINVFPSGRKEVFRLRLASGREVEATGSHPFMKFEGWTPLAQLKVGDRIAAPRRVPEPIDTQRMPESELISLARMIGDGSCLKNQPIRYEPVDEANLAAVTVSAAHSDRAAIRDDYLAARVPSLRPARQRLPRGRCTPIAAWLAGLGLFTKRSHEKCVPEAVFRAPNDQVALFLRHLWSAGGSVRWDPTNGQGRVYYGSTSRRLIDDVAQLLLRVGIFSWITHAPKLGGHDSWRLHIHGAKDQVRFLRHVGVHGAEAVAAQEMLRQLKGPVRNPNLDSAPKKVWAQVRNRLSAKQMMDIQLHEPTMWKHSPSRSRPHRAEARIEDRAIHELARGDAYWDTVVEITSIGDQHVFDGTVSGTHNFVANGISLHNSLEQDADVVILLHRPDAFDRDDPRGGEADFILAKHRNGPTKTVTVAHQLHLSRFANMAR

Streptococcus = test: Group A Streptococcus viability loss, dose response, counter-screen for streptokinase expression inhibitor project, luminescence, BacTiterGlo (AID 1915); type: functional, organism-based;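 also: potency for reduction of bacterial viability or growth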
cells = type: functional
[9] = system: Streptococcus sp. 'group A'; test: growth inhibition of control SK(-) GAS strain, dose response, counter-screen for streptokinase expression inhibitor project, luminescence, kanamycin, BacTiterGlo, confirmation (AID 1900); type: functional, organism-based
Aminopeptidase N = target: T4, Aminopeptidase N (Plasmodium falciparum FcB1/Columbia, UniProt O96935); test: P. falciparum M1AAP inhibitors, biochemical, fluorogenic H-Leu-NHMec substrate, 1536-well (AID 1445); design: species or system Plasmodium falciparum 3D7, 3D7
T4 sequence (O96935 whole entry): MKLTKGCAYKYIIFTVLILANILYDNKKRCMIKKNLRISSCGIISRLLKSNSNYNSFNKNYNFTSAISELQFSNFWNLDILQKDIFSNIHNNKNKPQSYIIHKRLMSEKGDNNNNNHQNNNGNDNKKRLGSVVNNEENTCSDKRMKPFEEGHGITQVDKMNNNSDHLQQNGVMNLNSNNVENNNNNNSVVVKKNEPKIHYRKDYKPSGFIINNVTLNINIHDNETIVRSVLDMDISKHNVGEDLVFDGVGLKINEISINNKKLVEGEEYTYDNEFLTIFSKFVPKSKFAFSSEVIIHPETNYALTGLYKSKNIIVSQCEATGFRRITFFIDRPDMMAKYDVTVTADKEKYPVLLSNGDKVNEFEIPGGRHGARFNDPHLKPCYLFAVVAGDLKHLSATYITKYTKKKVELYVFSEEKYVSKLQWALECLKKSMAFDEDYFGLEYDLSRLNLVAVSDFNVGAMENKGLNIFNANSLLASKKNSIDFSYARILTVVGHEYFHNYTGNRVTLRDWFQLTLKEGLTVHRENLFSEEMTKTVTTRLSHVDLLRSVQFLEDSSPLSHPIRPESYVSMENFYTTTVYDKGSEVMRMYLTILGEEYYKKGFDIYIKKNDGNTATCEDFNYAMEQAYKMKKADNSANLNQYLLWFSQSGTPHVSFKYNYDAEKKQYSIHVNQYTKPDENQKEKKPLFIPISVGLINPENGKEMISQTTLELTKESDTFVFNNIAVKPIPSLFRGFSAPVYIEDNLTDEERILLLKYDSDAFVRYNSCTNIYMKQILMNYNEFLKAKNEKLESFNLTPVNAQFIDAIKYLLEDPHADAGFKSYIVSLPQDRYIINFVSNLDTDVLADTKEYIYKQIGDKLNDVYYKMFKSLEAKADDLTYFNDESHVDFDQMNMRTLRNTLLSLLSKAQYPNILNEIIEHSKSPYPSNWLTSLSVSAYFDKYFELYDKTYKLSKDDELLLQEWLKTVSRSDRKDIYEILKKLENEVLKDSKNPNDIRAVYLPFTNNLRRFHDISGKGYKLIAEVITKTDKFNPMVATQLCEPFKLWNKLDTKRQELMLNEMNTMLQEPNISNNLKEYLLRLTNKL

Leucine aminopeptidase = target: T5, Leucine aminopeptidase (Plasmodium falciparum 3D7, UniProt Q8IL11); test: P. falciparum M17LAP inhibitors, primary screen, biochemical, fluorogenic H-Leu-NHMec substrate, 1536-well (AID 1619); type: functional
T5 sequence (Q8IL11 whole entry): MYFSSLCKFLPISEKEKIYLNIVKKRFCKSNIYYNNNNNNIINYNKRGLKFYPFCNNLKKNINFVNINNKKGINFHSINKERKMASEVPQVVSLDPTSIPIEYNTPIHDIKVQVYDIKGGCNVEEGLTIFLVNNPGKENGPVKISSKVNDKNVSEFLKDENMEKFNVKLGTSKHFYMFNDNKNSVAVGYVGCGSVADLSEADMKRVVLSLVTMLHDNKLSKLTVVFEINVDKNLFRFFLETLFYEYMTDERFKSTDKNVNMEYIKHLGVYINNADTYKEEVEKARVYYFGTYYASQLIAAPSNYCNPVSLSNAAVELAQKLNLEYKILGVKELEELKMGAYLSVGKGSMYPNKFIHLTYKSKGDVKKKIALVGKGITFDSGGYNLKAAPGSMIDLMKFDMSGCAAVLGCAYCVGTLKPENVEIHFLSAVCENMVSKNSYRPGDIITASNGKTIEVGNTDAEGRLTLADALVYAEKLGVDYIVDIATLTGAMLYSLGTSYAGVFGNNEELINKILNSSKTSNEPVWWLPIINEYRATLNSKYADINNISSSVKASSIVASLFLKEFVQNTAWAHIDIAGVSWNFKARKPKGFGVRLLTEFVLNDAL

Sequence of FAD-linked sulfhydryl oxidase ALR (P55789 whole entry): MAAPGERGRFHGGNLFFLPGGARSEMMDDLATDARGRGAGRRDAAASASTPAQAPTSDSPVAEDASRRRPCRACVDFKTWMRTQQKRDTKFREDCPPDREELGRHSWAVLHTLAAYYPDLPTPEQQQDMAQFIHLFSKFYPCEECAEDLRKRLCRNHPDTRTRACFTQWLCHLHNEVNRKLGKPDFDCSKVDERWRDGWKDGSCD

## O=C(NNc1c2ccccc2nc2ccccc12)c1cccc(O)c1
[1]
  AC50: 0.738 µM (active)

## COc1ccc2[nH]c3ccc(OC)cc3c2c1
[1]
  AC50: 8.33 µM (active)

## CCCCCOc1ccc(/C=N\c2ccc(-c3ccc(/N=C\c4ccc(OCCCCC)cc4)c(OC)c3)cc2OC)cc1
P388
  GI50: > 100 µM (inactive)
SN12K1
  GI50: > 100 µM (inactive)

## COc1ccc(C(=O)c2ccc(Cl)c([N+](=O)[O-])c2)cc1
Paired box protein Pax-8
  AC50: 7.17 µM (active)
[1]
  AC50: 3.95 µM (active)

## Cc1ccnc(NC(c2ccccn2)c2c(C)[nH]c3ccccc23)c1 (stereo not drawn)
[1]
  AC50: 1.39 µM (active)

## Cc1noc(C)c1C(=O)Nc1ccc(N(C)C)cc1
[1]
  AC50: 1.3 µM (active)

## Clc1ccc(-c2cc(-c3nnc4n3CCCCC4)c3ccccc3n2)cc1
[2]
  AC50: 5.59 µM (active)
[3]
  AC50: 11.1 µM (active)
INS1
  AC50: 6.17 µM (active)

## COc1ccc(CC(=O)N/N=C(\C)CC(=O)Nc2ccc(N(C)C)cc2)cc1OC
Large T antigen
  IC50: 10.1 µM (active)

## Oc1ccc(-c2nc3cnccn3c2Nc2ccc3c(c2)OCCO3)cc1
[4]
  EC50: 11 µM (active)
Large T antigen
  IC50: 4.14 µM (active)

## CC(C)CNS(=O)(=O)c1ccc(CCC(=O)N2CCN(Cc3ccc4c(c3)OCO4)CC2)cc1
[5]
  AC50: 12.1 µM (active)
[6]
  AC50: 27.2 µM (active)

## CN1CCCNc2nc3ccccc3nc21
[1]
  AC50: 9.27 µM (active)

## CC(=O)Nc1ccc(/C=C/c2ccc(NC(=O)Nc3ccc(/C=C/c4ccc(NC(C)=O)cc4S(=O)(=O)O)c(S(=O)(=O)O)c3)cc2S(=O)(=O)O)c(S(=O)(=O)O)c1
P388
  GI50: > 100 µM (inactive)
SN12K1
  GI50: > 100 µM (inactive)

## Cc1cc(C(=O)CCl)c(C)n1CCc1ccc(Cl)cc1
[4]
  EC50: > 260 µM (inconclusive)
[7]
  CC50: 2.48 µM (active)
Protein RecA
  EC50: 7.32 µM (active)
[8]
  AC50: 8.7 µM (active)

## COc1cccc(N2CCN(C(=O)C3CCCN(S(=O)(=O)c4c[nH]cn4)C3)CC2)c1 (stereo not drawn)
[1]
  AC50: 16.8 µM (active)

## Cc1ccc2nccc(C(=O)N3CCCC(Nc4ccc(F)cc4)C3)c2c1 (stereo not drawn)
[1]
  AC50: 3.03 µM (active)

## O=C(Nc1nnc(-c2ccc3c(c2)CCCC3)o1)c1c(F)cccc1F
Streptococcus
  EC50: 7.35 µM (active)
cells
  IC50: 4.08 µM (active)
[9]
  EC50: 1.77 µM (active)
[1]
  AC50: 7.99 µM (active)

## COc1cc(/C=C2\SC(=S)N(NS(=O)(=O)c3ccccc3)C2=O)ccc1O
Aminopeptidase N
  IC50: 24.5 µM (active)
Large T antigen
  IC50: 14.5 µM (active)
Leucine aminopeptidase
  IC50: 38.8 µM (active)

## Nc1ccc(Sc2ccccc2CC(=O)O)cc1
Large T antigen
  IC50: > 100 µM (active)
